row,SMILES,melting point
1,CC(=O)OC1CSC(Oc2ccc(-c3cccnc3)nc2Cl)C(OC(C)=O)C1OC(C)=O (configuration not stated),155 °C
2,Cc1cc(O)c(S(=O)Cc2ccccc2F)c(=O)o1 (configuration not stated),115 to 116 °C
3,COc1ccc2c(c1)CN(c1ccc3c(ccn3C)c1)C2,193 to 196 °C
4,CCCn1c(=O)c2c(nc(/C=C/c3ccccc3)n2C)n(CCC)c1=O,163 °C
5,CCCCSc1cc(C(=O)OCC#N)cc(S(N)(=O)=O)c1Oc1ccccc1,134 to 135 °C
6,O=C(/C=C/c1cccc(S(=O)(=O)N2CCN(c3ncccn3)CC2)c1)NO,200 °C
7,N#Cc1c(F)cc2c(c1Cl)N1CCC[C@@H](NC(=O)C(F)(F)F)[C@@H]1c1ccc(F)cc1O2,174 to 175 °C
8,COCCOc1ccc(OCC2(O)CN3CCC2CC3)cc1 (configuration not stated),93 to 95 °C
9,Cc1c(-c2ccc(O)cc2)n(Cc2ccc(OCCN3CCCCCC3)cc2)c2ccc(O)cc12,168 to 171 °C
10,CNC(=O)C(NC(=O)c1cn(C)nc1C(F)(F)F)C(/C=C/c1ccccc1)c1ccccc1 (configuration not stated),192 to 194 °C
11,c1ccc2c(c1)CCN(Cc1cc3ccccc3[nH]1)C2,129 to 131 °C
12,OCC1OC(n2cnc3c(N4CCOCC4)ncnc32)CC1F (configuration not stated),175 to 178 °C
13,C=CCN1CCC23CC(=O)CCC2C1Cc1cccc(OC)c13 (configuration not stated),84 to 86 °C
14,COc1ccc(C2=NN(Cn3nnc4ccccc43)C(=O)[C@H]3CCCC[C@@H]23)cc1OC (relative stereo),173 to 178 °C
15,CCCCc1nc(Cl)c(CC#N)n1Cc1ccc([N+](=O)[O-])cc1,118 to 121 °C
16,CNC(=O)C1=CC(COC)(COC)Oc2ccc([N+](=O)[O-])cc21,147 to 149 °C
17,Cc1nc2c(-c3cccc(N4CCOCC4)c3)cnn2c(N)c1-c1cccc(Cl)c1,165 to 167 °C
18,CCNc1cccc(C#CCCn2nc3ccccc3n2)n1,73 to 78 °C
19,O=C(CCl)Nc1ccc2cc3ccc(NC(=O)CCl)cc3nc2c1,95 to 100 °C
20,COCCOC(=O)NNC(=O)OCCOC,71.3 to 76.5 °C
21,COC(=O)/C=C/c1c(O)cccc1OCCCCC(=O)OC,97 to 98 °C
22,COC(=O)/C=C(/OC)c1cccc2ccc(Br)cc12,96 to 97 °C
23,Cn1cc(C2CCN(CCn3cnc4ccccc4c3=O)CC2)c2ccccc21,78 °C
24,COCCCCC1(O)C2=NCCCN2c2ccccc21 (configuration not stated),128 to 139 °C
25,CCCCSc1ccccc1C(=O)O,96 to 101 °C
26,CC(C)C1(Br)Cc2cc(OCC(=O)O)c(Cl)c(Cl)c2C1=O (configuration not stated),150 to 153 °C

row,SMILES,melting point
1,COc1ccc(C(NCC(=O)Nc2c(C(C)C)cccc2C(C)C)c2ccccc2)cc1 (configuration not stated),117 to 118 °C
2,NS(=O)(=O)c1ccccc1CCCl,168 to 171 °C
3,Clc1ccc2c3c([nH]c2c1)C1=CCCCN1CC3,165 °C
4,COC(=O)c1nc(-c2ccc(Cl)cc2F)cc(NC(C)=O)c1O,201 to 206 °C
5,COc1nc(C)nc(NC(=NS(=O)(=O)c2cccnc2)SC)n1,146 to 149 °C
6,Cc1cccnc1C1CC(C)(C)Oc2ccc([N+](=O)[O-])cc21 (configuration not stated),164 to 165 °C
7,COC(=O)c1cc(C(C)=O)c(OC(C)=O)cc1NC(=O)C(F)(F)F,130 to 131 °C
8,CCOC(=O)NNc1ccc(N(CC)CC(C)O)nn1 (configuration not stated),160 to 162 °C
9,CCc1cc(Br)c2c(=O)oc(=O)[nH]c2c1,236 to 237 °C
10,O=C(Nc1ccc(F)c(C(F)(F)F)c1)c1csc2cc(Oc3cc(CO)ncn3)ccc12,138 to 140 °C
11,NCC(O)C1=CC2(CC2)c2ccccc21 (configuration not stated),133 to 134 °C
12,COc1ccccc1N1CCN(CCn2c(=O)c3ccsc3n(C)c2=O)CC1,174 to 176 °C
13,CC(C(=O)O)c1ccc2noc(-c3ccccc3)c2c1 (configuration not stated),145 to 149 °C
14,COc1ccc2[nH]c3c(C(=O)Nc4ccc(CCCCN(C)Cc5ccc(OC)c(OC)c5)cc4)cccc3c(=O)c2c1,172 °C
15,c1ccc2c(c1)OCCN1CCOCCN(CCOCC1)CCO2,119 to 120 °C
16,CN1C(=O)Cc2cscc2S1(=O)=O,148 to 149 °C
17,COc1ccnc(CS(=O)c2nc3cc(C(F)(F)F)ccc3[nH]2)c1C (configuration not stated),225 to 227 °C
18,CCCOc1ccccc1-c1nc2c(C=CCc3ccccc3)cccc2c(=O)[nH]1,123 to 126 °C
19,Fc1ccc(Nc2ncnc3cc(-c4ccoc4)ccc23)cc1Cl,249 to 250 °C
20,Nc1c(-c2csc(-c3ccncc3)n2)c(=O)[nH]c2ccc(N3CCCCC3)cc12,199 to 202 °C
21,COC(=O)CCc1cc2nc(C(F)(F)F)ccc2n1S(=O)(=O)c1ccccc1,119 °C
22,CCOP(=O)(OCC)Oc1c(C2CCN(CCCCNC(=O)c3ccc(-c4ccc(C#N)cc4)cc3)CC2)ccc2c1CCCC2,90 °C
23,Cn1c(COc2ccc(CC3SC(=O)NC3=O)cc2)nc2ccc(Oc3ccc(NC(=O)c4ccc(F)cc4F)cc3)cc21 (configuration not stated),172 to 174 °C
24,CC(C)c1cccc(C(C)C)c1NC(=O)NOC(c1ccccc1)c1ccccc1,152 to 154 °C
25,CCCNc1ncc2c(=O)[nH]c(-c3ccccc3OCCC)nc2n1,185 to 187 °C
26,COc1ccc(N2CCN(c3c(C)c(C)c4c(c3C)C(OCc3ccc(C)cc3)C(C)(C)O4)CC2)cc1 (configuration not stated),84 to 85 °C

row,SMILES,melting point
1,O=C(O)C(Cc1ccc(Cl)cc1Cl)c1c(Cl)cccc1Cl (configuration not stated),220 to 222 °C
2,COc1cc(-c2ccc(O)c(C3(C)CCCCC3)c2)cc(CC2SC(N3CCCC3)=NC2=O)c1O (configuration not stated),204 to 206 °C
3,NC(=O)NN=Cc1ccc(Oc2cccnc2)cc1,160 to 162 °C
4,COc1ccc(NC(=O)c2ccc(F)c(F)c2)cc1NS(=O)(=O)c1cccc([N+](=O)[O-])c1,150 to 160 °C
5,CSc1nnc(-c2snnc2C)o1,65 °C
6,Cc1cc(Nc2cncc(NC3CCCCC3)n2)n[nH]1,194 to 196 °C
7,O=C(O)[C@@H](CCN1C(=O)c2ccccc2C1=O)Oc1c(Br)cc(-c2c3ccccc3c(Br)c3sc4ccccc4c23)cc1Br,215 to 217 °C
8,CN(C)c1cccc2c(S(=O)(=O)Nc3ncc(Cl)cc3Cl)cccc12,161 to 163 °C
9,C=C(F)Cc1ccc(OC)cc1OCc1ccccc1,77 to 78 °C
10,O=C(O)C1=C(C(=O)O)Oc2ccccc2O1,215 to 218 °C
11,CCOCc1c2c(n(Cc3ccccc3)c1-c1ccccc1)C(C)CN(Cc1ccccc1)C2 (configuration not stated),96 to 98 °C
12,CCN(CC)CC(C)COc1ccc2nc(-c3cccc(OC)c3)n(CC(=O)NC(C)C)c(=O)c2c1 (configuration not stated),161 to 163 °C
13,CSc1sc2[nH]c(=O)c(=O)[nH]c2c1C#N,> 225 °C
14,COc1cc(Br)cc2c(Cl)cc(C)nc12,140 to 142 °C
15,COC(=O)C(=O)c1cc(C(C)(C)C)c(O)c(C(C)(C)C)c1,82.5 to 84 °C
16,Cc1cn2ccccc2c1[N+](=O)[O-],137 to 139 °C
17,Cc1ccccc1-c1c(NC(=O)Nc2ccc(F)cc2F)c(=O)oc2ccc(C)c(C)c12,232 to 234 °C
18,CN1CCC(OC2c3ccccc3CCn3cc(I)nc32)CC1 (configuration not stated),126 °C
19,O=C1N=c2ccc(NCCCc3ccccc3)cc2=N1,205 to 206 °C
20,C=Cc1ccc2nnn(OS(=O)(=O)c3ccc(C)cc3)c2c1,90 to 91 °C
21,COc1cccc(OC/C=C(\C)C=O)c1,45 to 48 °C
22,CC1Oc2ccc(C3=NNC(=O)CC3)cc2NC1=O (configuration not stated),275 to 276 °C
23,CCN1C=C(N=[N+]=[N-])N=C(C2CC2)c2ccccc21,158 to 160 °C
24,CC(C)c1cccc(C(C)C)c1NS(=O)(=O)CC(=O)O,153 to 155 °C
25,O=C(Nc1ccc(C(F)(F)F)cc1)[C@H]1[C@H](c2ccccc2)C12CCCC2 (relative stereo),171 to 173 °C
26,CCCN(CCC)c1nc2c(N3CCCC3)nccc2c(=O)[nH]1,220 °C

row,SMILES,melting point
1,COc1ccc(C(=O)Cc2c(Cl)cncc2Cl)c2c1OCCCCO2,142 to 143 °C
2,Nc1ccccc1Cn1cc(C(F)(F)F)ccc1=O,83.4 to 85.3 °C
3,N=C(N)NCCc1ccc(OCCC2Oc3ccccc3N(Cc3cccc(OCc4ccccc4)c3)C2=O)cc1 (configuration not stated),100 to 105 °C
4,Cc1cccc(Cl)c1C1N=C(N(C)C)Cc2ccccc21 (configuration not stated),153 to 154 °C
5,CCOC(=O)Nc1ccc(C2CCN(C(=O)OCC)CC2)cc1,105 to 107 °C
6,CCOc1cccc(-c2ccnc3c(C(=O)c4cccs4)cnn23)c1,146 to 148 °C
7,CCOC(=O)c1cnc2nn(C)cc2c1OC(C)C,107 to 109 °C
8,COc1ccc(C2CC(O)(c3ccc(OC4CCCCO4)cc3)C2)cc1 (configuration not stated),72 to 75 °C
9,CC=CC=NNC(=O)c1cnccn1,192 to 194 °C
10,CNC(=O)NC1OCC(OC(C)=O)C(OC(C)=O)C1OC(C)=O (configuration not stated),170 to 172 °C
11,CCOC(=O)c1ccc(N=C(Nc2ccc(C(=O)OCC)cc2)c2ccc(-c3ccccc3)cc2)cc1,152 to 160 °C
12,Cn1c(C(F)(F)F)cc(=O)n(-c2cc(OCC(F)(F)F)c(Cl)cc2F)c1=O,136 to 138 °C
13,Cc1ccc(S(=O)(=O)NC(Cc2ccccc2)C(=O)Nc2c(F)cc(F)cc2F)cc1 (configuration not stated),180 to 181 °C
14,COCC1OC(n2cnc3c(Cl)nc(Cl)nc32)C(OC(C)=O)C1OC(C)=O (configuration not stated),59 to 61 °C
15,COC(=O)C(Cc1ccc(OCCc2nc(-c3ccccc3)oc2C)cc1)C(=O)N(C)C (configuration not stated),114 to 115 °C
16,CCOC(=O)c1cc2cc(C)cc(NS(=O)(=O)c3cccs3)c2[nH]1,168 to 169 °C
17,Fc1ccc(Cn2c(NC3CCN(CCOc4nccs4)CC3)nc3ccccc32)cc1,156 °C
18,CNCC1=C(n2ccccc2=O)c2cc([N+](=O)[O-])ccc2OC1(C)C,128 °C
19,CON=Cc1[nH]ccc1S(=O)(=O)NC(C)(C)C,99 to 101 °C
20,O=C1Nc2ccccc2N(C(=O)CCN2CCCCC2)c2ccc(Cl)cc21,170 to 172 °C
21,O=C1N=NC(=O)c2c1[nH]c1cc(Cl)cc(Cl)c21,> 300 °C
22,Cn1nnnc1-c1cc(-c2ccc(F)cc2)sc1-c1ccc(F)cc1,175 to 176 °C
23,CCc1nc2c(o1)C(=O)C(C)=C(NCCN(C)C)C2=O,135 °C
24,OC1CCc2cc(F)cc(F)c21 (configuration not stated),102 to 103 °C

# Source: a melting point compilation (Tetko et al.; mined from patent text by program, amines drawn as free bases though some values may be those of a salt)
